Results reported in PubChem BioAssay (NCI).
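These data come from cells grown in 96-well plates and exposed to compound for 48 hours at five concentrations. At the TGI there is no net growth.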

Legend:
Assay in all cases: NCI tumour cell line growth inhibition, 48 h
786-0 renal = tested on: 786-0 renal
A498 renal = tested on: A498 renal
A549 NSCLC = tested on: A549 NSCLC
ACHN renal = tested on: ACHN renal
CAKI-1 renal = tested on: CAKI-1 renal
CCRF-CEM leukemia = tested on: CCRF-CEM leukemia
COLO 205 colon = tested on: COLO 205 colon
DLD-1 colon = tested on: DLD-1 colon
DMS 114 small cell lung = tested on: DMS 114 small cell lung
DMS 273 small cell lung = tested on: DMS 273 small cell lung
EKVX NSCLC = tested on: EKVX NSCLC
HCC-2998 colon = tested on: HCC-2998 colon
HCT-15 colon = tested on: HCT-15 colon
HL-60(TB) leukemia = tested on: HL-60(TB) leukemia
HOP-18 NSCLC = tested on: HOP-18 NSCLC
HOP-62 NSCLC = tested on: HOP-62 NSCLC
HOP-92 NSCLC = tested on: HOP-92 NSCLC
HT29 colon = tested on: HT29 colon
IGROV1 ovarian = tested on: IGROV1 ovarian
K-562 leukemia = tested on: K-562 leukemia
KM12 colon = tested on: KM12 colon
KM20L2 colon = tested on: KM20L2 colon
LOX IMVI melanoma = tested on: LOX IMVI melanoma
MALME-3M melanoma = tested on: MALME-3M melanoma
MOLT-4 leukemia = tested on: MOLT-4 leukemia
NCI-H226 lung = tested on: NCI-H226 lung
NCI-H23 lung = tested on: NCI-H23 lung
NCI-H460 lung = tested on: NCI-H460 lung
NCI-H522 lung = tested on: NCI-H522 lung
OVCAR-3 ovarian = tested on: OVCAR-3 ovarian
OVCAR-5 ovarian = tested on: OVCAR-5 ovarian
OVCAR-8 ovarian = tested on: OVCAR-8 ovarian
RPMI-8226 leukemia = tested on: RPMI-8226 leukemia
RXF 393 renal = tested on: RXF 393 renal
RXF-631 renal = tested on: RXF-631 renal
SF-268 CNS = tested on: SF-268 CNS
SF-295 CNS = tested on: SF-295 CNS
SF-539 CNS = tested on: SF-539 CNS
SK-MEL-2 melanoma = tested on: SK-MEL-2 melanoma
SK-MEL-28 melanoma = tested on: SK-MEL-28 melanoma
SK-MEL-5 melanoma = tested on: SK-MEL-5 melanoma
SK-OV-3 ovarian = tested on: SK-OV-3 ovarian
SN12C renal = tested on: SN12C renal
SNB-75 CNS = tested on: SNB-75 CNS
SNB-78 CNS = tested on: SNB-78 CNS
SW-620 colon = tested on: SW-620 colon
TK-10 renal = tested on: TK-10 renal
U251 CNS = tested on: U251 CNS
UACC-257 melanoma = tested on: UACC-257 melanoma
UACC-62 melanoma = tested on: UACC-62 melanoma
UO-31 renal = tested on: UO-31 renal
HCT-116 colon = tested on: HCT-116 colon
LXFL 529 NSCLC = tested on: LXFL 529 NSCLC
M14 melanoma = tested on: M14 melanoma
M19-MEL melanoma = tested on: M19-MEL melanoma
OVCAR-4 ovarian = tested on: OVCAR-4 ovarian
SNB-19 CNS = tested on: SNB-19 CNS
SR leukemia = tested on: SR leukemia

`COc1cc(/C=C/C(=O)c2sc(NNC(C)=O)nc2C)ccc1O` was tested, and the TGI (786-0 renal) was over 100 µM, the TGI (A498 renal) was over 100 µM and the TGI (A549 NSCLC) was over 100 µM. It also gave a TGI (ACHN renal) of over 100 µM, a TGI (CAKI-1 renal) of over 100 µM and a TGI (CCRF-CEM leukemia) of over 100 µM. The TGI (COLO 205 colon) was over 100 µM, the TGI (DLD-1 colon) was over 100 µM and the TGI (DMS 114 small cell lung) was over 100 µM. It also gave a TGI (DMS 273 small cell lung) of over 100 µM, a TGI (EKVX NSCLC) of over 100 µM and a TGI (HCC-2998 colon) of over 100 µM. It also gave a TGI (HCT-15 colon) of over 100 µM, a TGI (HL-60(TB) leukemia) of over 100 µM and a TGI (HOP-18 NSCLC) of over 100 µM. For the same compound, the TGI (HOP-62 NSCLC) was over 100 µM, the TGI (HOP-92 NSCLC) was over 100 µM and the TGI (HT29 colon) was over 100 µM. The TGI (IGROV1 ovarian) was over 100 µM, the TGI (K-562 leukemia) was over 100 µM and the TGI (KM12 colon) was over 100 µM. For the same compound, the TGI (KM20L2 colon) was over 100 µM, the TGI (LOX IMVI melanoma) was over 100 µM and the TGI (MALME-3M melanoma) was over 100 µM. The TGI (MOLT-4 leukemia) was over 100 µM, the TGI (NCI-H226 lung) was over 100 µM and the TGI (NCI-H23 lung) was over 100 µM. It also gave a TGI (NCI-H460 lung) of over 100 µM, a TGI (NCI-H522 lung) of over 100 µM and a TGI (OVCAR-3 ovarian) of over 100 µM. The TGI (OVCAR-5 ovarian) was over 100 µM, the TGI (OVCAR-8 ovarian) was over 100 µM and the TGI (RPMI-8226 leukemia) was over 100 µM. The TGI (RXF 393 renal) was over 100 µM, the TGI (RXF-631 renal) was over 100 µM and the TGI (SF-268 CNS) was over 100 µM. It also gave a TGI (SF-295 CNS) of over 100 µM, a TGI (SF-539 CNS) of over 100 µM and a TGI (SK-MEL-2 melanoma) of over 100 µM. The TGI (SK-MEL-28 melanoma) was over 100 µM, the TGI (SK-MEL-5 melanoma) was over 100 µM and the TGI (SK-OV-3 ovarian) was over 100 µM. The TGI (SN12C renal) was over 100 µM, the TGI (SNB-75 CNS) was over 100 µM and the TGI (SNB-78 CNS) was over 100 µM. The TGI (SW-620 colon) was over 100 µM, the TGI (TK-10 renal) was over 100 µM and the TGI (U251 CNS) was over 100 µM. It also gave a TGI (UACC-257 melanoma) of over 100 µM, a TGI (UACC-62 melanoma) of over 100 µM and a TGI (UO-31 renal) of over 100 µM.

Work on `CS/C(=N\c1nccs1)NC(=O)c1cccc(Cl)c1` yielded a TGI (786-0 renal) of over 100 µM, a TGI (A498 renal) of over 100 µM and a TGI (A549 NSCLC) of over 100 µM. For the same compound, the TGI (ACHN renal) was over 100 µM, the TGI (CAKI-1 renal) was over 100 µM and the TGI (CCRF-CEM leukemia) was over 100 µM. The TGI (COLO 205 colon) was over 100 µM, the TGI (DLD-1 colon) was over 100 µM and the TGI (DMS 114 small cell lung) was over 100 µM. It also gave a TGI (DMS 273 small cell lung) of over 100 µM, a TGI (EKVX NSCLC) of over 100 µM and a TGI (HCC-2998 colon) of over 100 µM. For the same compound, the TGI (HCT-116 colon) was over 100 µM, the TGI (HCT-15 colon) was over 100 µM and the TGI (HL-60(TB) leukemia) was over 100 µM. It also gave a TGI (HOP-18 NSCLC) of over 100 µM, a TGI (HOP-62 NSCLC) of over 100 µM and a TGI (HOP-92 NSCLC) of over 100 µM. It also gave a TGI (HT29 colon) of over 100 µM, a TGI (IGROV1 ovarian) of over 100 µM and a TGI (K-562 leukemia) of over 100 µM. It also gave a TGI (KM12 colon) of over 100 µM, a TGI (KM20L2 colon) of over 100 µM and a TGI (LOX IMVI melanoma) of over 100 µM. The TGI (LXFL 529 NSCLC) was over 100 µM, the TGI (M14 melanoma) was over 100 µM and the TGI (M19-MEL melanoma) was over 100 µM. For the same compound, the TGI (MALME-3M melanoma) was over 100 µM, the TGI (MOLT-4 leukemia) was 89.6 µM and the TGI (NCI-H226 lung) was over 100 µM. It also gave a TGI (NCI-H23 lung) of over 100 µM, a TGI (NCI-H460 lung) of over 100 µM and a TGI (NCI-H522 lung) of over 100 µM. The TGI (OVCAR-3 ovarian) was over 100 µM, the TGI (OVCAR-4 ovarian) was over 100 µM and the TGI (OVCAR-5 ovarian) was over 100 µM. It also gave a TGI (OVCAR-8 ovarian) of over 100 µM, a TGI (RPMI-8226 leukemia) of over 100 µM and a TGI (RXF 393 renal) of over 100 µM. For the same compound, the TGI (RXF-631 renal) was over 100 µM, the TGI (SF-268 CNS) was over 100 µM and the TGI (SF-295 CNS) was over 100 µM. It also gave a TGI (SF-539 CNS) of over 100 µM, a TGI (SK-MEL-2 melanoma) of over 100 µM and a TGI (SK-MEL-28 melanoma) of over 100 µM. It also gave a TGI (SK-MEL-5 melanoma) of over 100 µM, a TGI (SK-OV-3 ovarian) of over 100 µM and a TGI (SN12C renal) of over 100 µM. For the same compound, the TGI (SNB-19 CNS) was over 100 µM, the TGI (SNB-75 CNS) was over 100 µM and the TGI (SNB-78 CNS) was over 100 µM. It also gave a TGI (SR leukemia) of over 100 µM, a TGI (SW-620 colon) of over 100 µM and a TGI (TK-10 renal) of over 100 µM. It also gave a TGI (U251 CNS) of over 100 µM, a TGI (UACC-257 melanoma) of over 100 µM and a TGI (UACC-62 melanoma) of over 100 µM. It also gave a TGI (UO-31 renal) of over 100 µM.
